Tests used:
Conditions in all cases: Compound concentration 10 µM
[1] = target: D(2) dopamine receptor (Homo sapiens) (UniProt P14416)
Description: PDSP Primary Binding target: DRD2 - Compounds are tested at 10 uM concentration, plate are incubated at room temperature in the dark for 90 minutes. Reaction are stopped by vacuum filtration onto 0.3% polyethyleneimine soaked filter mats using Filtermate harvester. Scintilation cocktail is then melted onto microwave-dried filters on a hot plate and the radio activity is counted in Microbia counter.

[2] = target: Histamine H3 receptor (Homo sapiens) (UniProt Q9Y5N1)
Description: PDSP Primary Binding target: HRH3 - Compounds are tested at 10 uM concentration, plate are incubated at room temperature in the dark for 90 minutes. Reaction are stopped by vacuum filtration onto 0.3% polyethyleneimine soaked filter mats using Filtermate harvester. Scintilation cocktail is then melted onto microwave-dried filters on a hot plate and the radio activity is counted in Microbia counter.

[3] = target: T1, Alpha-1D adrenergic receptor (Homo sapiens) (UniProt P25100)
T1 sequence (whole entry): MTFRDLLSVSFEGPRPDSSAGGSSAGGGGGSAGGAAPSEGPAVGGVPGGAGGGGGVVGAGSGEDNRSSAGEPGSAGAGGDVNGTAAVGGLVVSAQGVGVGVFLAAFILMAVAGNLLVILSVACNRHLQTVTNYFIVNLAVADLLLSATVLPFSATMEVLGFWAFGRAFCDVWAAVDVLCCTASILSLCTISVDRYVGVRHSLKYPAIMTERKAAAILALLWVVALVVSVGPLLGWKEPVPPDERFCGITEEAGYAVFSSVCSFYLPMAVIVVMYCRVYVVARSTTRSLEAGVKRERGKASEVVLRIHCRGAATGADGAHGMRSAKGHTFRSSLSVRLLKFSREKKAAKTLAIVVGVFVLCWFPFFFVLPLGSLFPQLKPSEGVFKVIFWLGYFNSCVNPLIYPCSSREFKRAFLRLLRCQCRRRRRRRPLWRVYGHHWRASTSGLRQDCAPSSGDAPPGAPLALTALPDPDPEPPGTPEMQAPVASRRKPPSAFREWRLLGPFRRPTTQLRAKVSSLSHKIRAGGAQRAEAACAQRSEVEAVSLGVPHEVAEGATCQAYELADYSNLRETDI
Description: PDSP Primary Binding target: ADRA1D - Compounds are tested at 10 uM concentration, plate are incubated at room temperature in the dark for 90 minutes. Reaction are stopped by vacuum filtration onto 0.3% polyethyleneimine soaked filter mats using Filtermate harvester. Scintilation cocktail is then melted onto microwave-dried filters on a hot plate and the radio activity is counted in Microbia counter.

[4] = target: T2, Alpha-2A adrenergic receptor (Homo sapiens) (UniProt P08913)
T2 sequence (whole entry): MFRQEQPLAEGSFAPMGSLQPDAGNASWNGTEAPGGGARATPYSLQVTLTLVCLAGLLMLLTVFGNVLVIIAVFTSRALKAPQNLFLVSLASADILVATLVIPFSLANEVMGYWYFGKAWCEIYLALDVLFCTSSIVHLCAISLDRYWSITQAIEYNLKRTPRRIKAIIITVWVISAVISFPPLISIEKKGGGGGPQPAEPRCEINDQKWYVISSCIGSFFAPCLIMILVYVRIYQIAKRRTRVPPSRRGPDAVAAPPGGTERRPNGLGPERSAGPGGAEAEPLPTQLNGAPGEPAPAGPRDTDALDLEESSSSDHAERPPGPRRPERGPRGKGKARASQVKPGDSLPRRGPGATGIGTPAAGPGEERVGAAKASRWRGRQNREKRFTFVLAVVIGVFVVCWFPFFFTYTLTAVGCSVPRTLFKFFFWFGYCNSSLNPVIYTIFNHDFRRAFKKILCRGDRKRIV
Description: PDSP Primary Binding target: ADRA2A - Compounds are tested at 10 uM concentration, plate are incubated at room temperature in the dark for 90 minutes. Reaction are stopped by vacuum filtration onto 0.3% polyethyleneimine soaked filter mats using Filtermate harvester. Scintilation cocktail is then melted onto microwave-dried filters on a hot plate and the radio activity is counted in Microbia counter.

[5] = target: 5-hydroxytryptamine receptor 1B (Homo sapiens) (UniProt P28222)
5-hydroxytryptamine receptor 1B (Homo sapiens), sequence (P28222 whole entry): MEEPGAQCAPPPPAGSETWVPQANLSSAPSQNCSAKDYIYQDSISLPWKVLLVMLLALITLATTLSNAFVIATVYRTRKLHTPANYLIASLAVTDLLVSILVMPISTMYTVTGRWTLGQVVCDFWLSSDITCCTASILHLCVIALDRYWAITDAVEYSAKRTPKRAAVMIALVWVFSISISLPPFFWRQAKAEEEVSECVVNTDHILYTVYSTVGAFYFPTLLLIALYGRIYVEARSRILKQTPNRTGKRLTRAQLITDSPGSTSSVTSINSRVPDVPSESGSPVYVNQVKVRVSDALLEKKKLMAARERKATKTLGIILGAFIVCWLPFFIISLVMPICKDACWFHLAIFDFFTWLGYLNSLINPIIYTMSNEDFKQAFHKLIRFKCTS
Description: PDSP Primary Binding target: HTR1B - Compounds are tested at 10 uM concentration, plate are incubated at room temperature in the dark for 90 minutes. Reaction are stopped by vacuum filtration onto 0.3% polyethyleneimine soaked filter mats using Filtermate harvester. Scintilation cocktail is then melted onto microwave-dried filters on a hot plate and the radio activity is counted in Microbia counter.

[6] = target: T3, D(4) dopamine receptor (Homo sapiens) (UniProt P21917)
T3 sequence (whole entry): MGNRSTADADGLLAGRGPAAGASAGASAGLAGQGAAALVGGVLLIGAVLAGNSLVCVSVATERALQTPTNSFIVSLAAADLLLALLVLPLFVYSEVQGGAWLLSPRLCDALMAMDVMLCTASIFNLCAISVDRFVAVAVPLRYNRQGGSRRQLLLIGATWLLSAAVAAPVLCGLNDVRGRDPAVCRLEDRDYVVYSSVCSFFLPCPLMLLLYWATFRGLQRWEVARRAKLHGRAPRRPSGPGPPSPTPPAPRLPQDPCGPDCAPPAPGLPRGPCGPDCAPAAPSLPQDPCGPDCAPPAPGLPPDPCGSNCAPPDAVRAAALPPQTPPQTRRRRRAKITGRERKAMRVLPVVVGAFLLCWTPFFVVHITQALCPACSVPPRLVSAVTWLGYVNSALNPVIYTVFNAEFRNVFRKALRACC
Description: PDSP Primary Binding target: DRD4 - Compounds are tested at 10 uM concentration, plate are incubated at room temperature in the dark for 90 minutes. Reaction are stopped by vacuum filtration onto 0.3% polyethyleneimine soaked filter mats using Filtermate harvester. Scintilation cocktail is then melted onto microwave-dried filters on a hot plate and the radio activity is counted in Microbia counter.

[7] = target: Histamine H1 receptor (Homo sapiens) (UniProt P35367)
Histamine H1 receptor (Homo sapiens), sequence (P35367 whole entry): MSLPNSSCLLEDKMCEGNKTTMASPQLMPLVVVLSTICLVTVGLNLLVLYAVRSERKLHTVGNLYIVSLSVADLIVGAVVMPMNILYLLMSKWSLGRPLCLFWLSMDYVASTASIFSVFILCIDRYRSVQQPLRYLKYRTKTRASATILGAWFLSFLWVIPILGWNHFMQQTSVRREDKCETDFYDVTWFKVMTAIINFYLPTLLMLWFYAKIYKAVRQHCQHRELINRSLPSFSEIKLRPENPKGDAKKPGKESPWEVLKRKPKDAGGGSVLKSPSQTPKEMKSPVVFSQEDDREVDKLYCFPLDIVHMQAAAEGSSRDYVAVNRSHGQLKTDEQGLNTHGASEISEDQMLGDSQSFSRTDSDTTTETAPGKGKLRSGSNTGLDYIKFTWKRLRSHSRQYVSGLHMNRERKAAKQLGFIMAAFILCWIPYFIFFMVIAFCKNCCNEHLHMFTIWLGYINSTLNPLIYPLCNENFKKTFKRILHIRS
Description: PDSP Primary Binding target: HRH1 - Compounds are tested at 10 uM concentration, plate are incubated at room temperature in the dark for 90 minutes. Reaction are stopped by vacuum filtration onto 0.3% polyethyleneimine soaked filter mats using Filtermate harvester. Scintilation cocktail is then melted onto microwave-dried filters on a hot plate and the radio activity is counted in Microbia counter.

[8] = target: Translocator protein (Homo sapiens) (UniProt P30536)
Translocator protein (Homo sapiens), sequence (P30536 whole entry): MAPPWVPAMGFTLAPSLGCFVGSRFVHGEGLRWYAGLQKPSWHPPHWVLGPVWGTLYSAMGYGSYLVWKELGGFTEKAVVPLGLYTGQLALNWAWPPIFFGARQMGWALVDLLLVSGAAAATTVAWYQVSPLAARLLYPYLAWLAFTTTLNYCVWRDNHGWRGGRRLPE
Description: PDSP Primary Binding target: TSPO - Compounds are tested at 10 uM concentration, plate are incubated at room temperature in the dark for 90 minutes. Reaction are stopped by vacuum filtration onto 0.3% polyethyleneimine soaked filter mats using Filtermate harvester. Scintilation cocktail is then melted onto microwave-dried filters on a hot plate and the radio activity is counted in Microbia counter.

[9] = target: Muscarinic acetylcholine receptor M3 (Homo sapiens) (UniProt P20309)
Muscarinic acetylcholine receptor M3 (Homo sapiens), sequence (P20309 whole entry, looked up): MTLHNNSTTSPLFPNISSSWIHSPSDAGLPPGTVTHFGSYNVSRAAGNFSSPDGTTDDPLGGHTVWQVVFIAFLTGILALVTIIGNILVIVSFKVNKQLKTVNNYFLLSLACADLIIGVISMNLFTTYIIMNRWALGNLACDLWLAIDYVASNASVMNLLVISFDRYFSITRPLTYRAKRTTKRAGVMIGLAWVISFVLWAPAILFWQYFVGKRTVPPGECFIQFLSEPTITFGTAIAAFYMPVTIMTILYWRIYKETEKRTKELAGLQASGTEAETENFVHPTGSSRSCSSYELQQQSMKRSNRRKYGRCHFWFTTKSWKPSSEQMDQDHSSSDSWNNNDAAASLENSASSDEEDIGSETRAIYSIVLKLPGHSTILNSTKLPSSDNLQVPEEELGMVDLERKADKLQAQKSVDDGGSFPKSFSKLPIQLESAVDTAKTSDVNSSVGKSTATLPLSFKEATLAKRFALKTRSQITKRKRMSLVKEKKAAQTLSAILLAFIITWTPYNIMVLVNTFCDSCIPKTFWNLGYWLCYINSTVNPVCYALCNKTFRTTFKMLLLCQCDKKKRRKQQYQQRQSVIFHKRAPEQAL
Description: PDSP Primary Binding target: CHRM3 - Compounds are tested at 10 uM concentration, plate are incubated at room temperature in the dark for 90 minutes. Reaction are stopped by vacuum filtration onto 0.3% polyethyleneimine soaked filter mats using Filtermate harvester. Scintilation cocktail is then melted onto microwave-dried filters on a hot plate and the radio activity is counted in Microbia counter.

[10] = target: T4, Muscarinic acetylcholine receptor M5 (Homo sapiens) (UniProt P08912)
T4 sequence (whole entry): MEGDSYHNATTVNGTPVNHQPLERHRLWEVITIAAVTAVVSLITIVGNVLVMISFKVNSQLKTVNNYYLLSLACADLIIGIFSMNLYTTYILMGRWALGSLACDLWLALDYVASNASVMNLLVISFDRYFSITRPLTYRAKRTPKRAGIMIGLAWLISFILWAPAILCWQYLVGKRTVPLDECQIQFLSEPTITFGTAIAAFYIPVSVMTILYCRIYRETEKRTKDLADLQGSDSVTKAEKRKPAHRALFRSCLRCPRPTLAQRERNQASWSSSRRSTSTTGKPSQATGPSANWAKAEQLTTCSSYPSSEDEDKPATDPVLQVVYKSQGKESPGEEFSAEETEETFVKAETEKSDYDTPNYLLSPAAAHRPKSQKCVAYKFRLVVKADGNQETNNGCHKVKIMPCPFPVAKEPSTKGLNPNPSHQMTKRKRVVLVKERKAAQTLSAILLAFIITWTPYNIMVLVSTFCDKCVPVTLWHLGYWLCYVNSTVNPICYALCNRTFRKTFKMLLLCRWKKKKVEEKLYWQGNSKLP
Description: PDSP Primary Binding target: CHRM5 - Compounds are tested at 10 uM concentration, plate are incubated at room temperature in the dark for 90 minutes. Reaction are stopped by vacuum filtration onto 0.3% polyethyleneimine soaked filter mats using Filtermate harvester. Scintilation cocktail is then melted onto microwave-dried filters on a hot plate and the radio activity is counted in Microbia counter.

[11] = target: T5, Alpha-1A adrenergic receptor (Homo sapiens) (UniProt P35348)
T5 sequence (whole entry): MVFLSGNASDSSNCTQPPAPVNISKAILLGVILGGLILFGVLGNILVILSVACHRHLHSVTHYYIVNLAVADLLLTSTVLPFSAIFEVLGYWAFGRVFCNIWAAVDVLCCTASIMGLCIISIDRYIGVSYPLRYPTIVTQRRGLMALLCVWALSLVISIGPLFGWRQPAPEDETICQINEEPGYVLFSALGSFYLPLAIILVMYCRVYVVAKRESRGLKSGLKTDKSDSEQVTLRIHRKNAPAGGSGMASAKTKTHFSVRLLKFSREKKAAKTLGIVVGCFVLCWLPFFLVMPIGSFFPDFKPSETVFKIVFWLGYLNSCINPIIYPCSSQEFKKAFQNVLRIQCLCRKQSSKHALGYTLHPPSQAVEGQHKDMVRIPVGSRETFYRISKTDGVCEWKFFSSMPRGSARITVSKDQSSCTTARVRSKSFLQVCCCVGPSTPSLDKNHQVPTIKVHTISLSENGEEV
Description: PDSP Primary Binding target: ADRA1A - Compounds are tested at 10 uM concentration, plate are incubated at room temperature in the dark for 90 minutes. Reaction are stopped by vacuum filtration onto 0.3% polyethyleneimine soaked filter mats using Filtermate harvester. Scintilation cocktail is then melted onto microwave-dried filters on a hot plate and the radio activity is counted in Microbia counter.

[12] = target: 5-hydroxytryptamine receptor 1E (Homo sapiens) (UniProt P28566)
5-hydroxytryptamine receptor 1E (Homo sapiens), sequence (P28566 whole entry): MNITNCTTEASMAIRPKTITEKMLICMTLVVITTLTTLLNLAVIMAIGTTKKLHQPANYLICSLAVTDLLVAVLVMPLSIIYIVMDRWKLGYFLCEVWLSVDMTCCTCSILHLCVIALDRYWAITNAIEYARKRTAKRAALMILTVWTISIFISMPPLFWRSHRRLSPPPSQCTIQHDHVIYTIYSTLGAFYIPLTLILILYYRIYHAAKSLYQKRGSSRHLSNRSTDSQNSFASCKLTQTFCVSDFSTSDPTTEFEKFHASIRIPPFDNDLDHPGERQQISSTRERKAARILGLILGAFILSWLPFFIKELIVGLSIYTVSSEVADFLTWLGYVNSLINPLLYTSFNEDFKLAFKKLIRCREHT
Description: PDSP Primary Binding target: HTR1E - Compounds are tested at 10 uM concentration, plate are incubated at room temperature in the dark for 90 minutes. Reaction are stopped by vacuum filtration onto 0.3% polyethyleneimine soaked filter mats using Filtermate harvester. Scintilation cocktail is then melted onto microwave-dried filters on a hot plate and the radio activity is counted in Microbia counter.

[13] = target: Sodium-dependent serotonin transporter (Homo sapiens) (UniProt P31645)
Sodium-dependent serotonin transporter (Homo sapiens), sequence (P31645 whole entry, looked up): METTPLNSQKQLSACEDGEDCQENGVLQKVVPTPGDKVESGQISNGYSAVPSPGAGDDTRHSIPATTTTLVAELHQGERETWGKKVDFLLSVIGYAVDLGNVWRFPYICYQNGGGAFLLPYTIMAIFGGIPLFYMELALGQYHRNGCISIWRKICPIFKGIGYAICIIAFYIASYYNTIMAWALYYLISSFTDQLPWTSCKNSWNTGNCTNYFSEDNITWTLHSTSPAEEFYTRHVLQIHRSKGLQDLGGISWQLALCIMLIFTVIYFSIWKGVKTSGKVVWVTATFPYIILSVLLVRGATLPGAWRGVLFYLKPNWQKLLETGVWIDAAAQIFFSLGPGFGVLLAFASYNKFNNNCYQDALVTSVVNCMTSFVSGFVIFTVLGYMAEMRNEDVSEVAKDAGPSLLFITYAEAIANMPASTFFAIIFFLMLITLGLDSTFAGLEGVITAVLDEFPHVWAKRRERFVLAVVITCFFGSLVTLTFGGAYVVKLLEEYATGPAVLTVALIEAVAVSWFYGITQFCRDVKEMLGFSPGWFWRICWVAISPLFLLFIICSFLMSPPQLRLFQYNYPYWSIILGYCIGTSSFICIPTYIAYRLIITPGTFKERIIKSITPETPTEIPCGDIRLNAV
Description: PDSP Primary Binding target: SLC6A4 - Compounds are tested at 10 uM concentration, plate are incubated at room temperature in the dark for 90 minutes. Reaction are stopped by vacuum filtration onto 0.3% polyethyleneimine soaked filter mats using Filtermate harvester. Scintilation cocktail is then melted onto microwave-dried filters on a hot plate and the radio activity is counted in Microbia counter.

D(2) dopamine receptor (Homo sapiens), sequence (P14416 whole entry): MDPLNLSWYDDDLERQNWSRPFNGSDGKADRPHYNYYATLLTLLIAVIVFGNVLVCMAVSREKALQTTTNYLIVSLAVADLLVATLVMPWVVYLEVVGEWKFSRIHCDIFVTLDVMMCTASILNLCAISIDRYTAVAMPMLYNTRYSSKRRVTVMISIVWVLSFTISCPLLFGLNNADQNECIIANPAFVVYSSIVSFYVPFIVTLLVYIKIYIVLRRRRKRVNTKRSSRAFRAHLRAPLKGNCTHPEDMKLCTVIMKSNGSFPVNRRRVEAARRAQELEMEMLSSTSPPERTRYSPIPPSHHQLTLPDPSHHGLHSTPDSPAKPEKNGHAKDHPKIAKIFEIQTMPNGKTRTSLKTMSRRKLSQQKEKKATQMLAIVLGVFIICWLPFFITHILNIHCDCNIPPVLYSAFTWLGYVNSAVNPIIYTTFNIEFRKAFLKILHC
Histamine H3 receptor (Homo sapiens), sequence (Q9Y5N1 whole entry): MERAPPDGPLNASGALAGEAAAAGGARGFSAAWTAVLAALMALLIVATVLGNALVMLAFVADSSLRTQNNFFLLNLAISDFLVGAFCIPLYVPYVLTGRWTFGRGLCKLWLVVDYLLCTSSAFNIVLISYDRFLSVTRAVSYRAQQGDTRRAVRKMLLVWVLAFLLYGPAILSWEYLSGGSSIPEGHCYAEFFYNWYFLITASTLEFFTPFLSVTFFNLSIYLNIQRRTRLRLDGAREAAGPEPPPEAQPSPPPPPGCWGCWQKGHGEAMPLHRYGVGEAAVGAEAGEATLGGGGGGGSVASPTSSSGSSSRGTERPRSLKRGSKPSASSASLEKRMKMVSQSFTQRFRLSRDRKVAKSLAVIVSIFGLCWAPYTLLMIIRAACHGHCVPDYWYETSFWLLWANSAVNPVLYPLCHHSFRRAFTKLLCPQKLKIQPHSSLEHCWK

Row | SMILES | inhibition [1] [%] | inhibition [2] [%] | inhibition [3] [%] | inhibition [4] [%] | inhibition [5] [%] | inhibition [6] [%] | inhibition [7] [%] | inhibition [8] [%] | inhibition [9] [%] | inhibition [10] [%] | inhibition [11] [%] | inhibition [12] [%] | inhibition [13] [%]
1 | CN(C(=O)Cc1ccc(Cl)c(Cl)c1)C(CN1CCCC1)c1cccc(OCC(=O)O)c1 (configuration not stated) | -3.77 | -7.51 | 5.15 | 12.2 | 11.1 | -5.18 | 47.4 | 21.5 | 9.38 | 59.6 | -0.83 | -3.71 | –
2 | Cc1nc(C(=O)N2CCC[C@H]2Cc2nnc(-c3ccccc3)o2)c(-c2ccccc2F)s1 | 14.6 | 22.7 | 26.4 | – | – | -5.22 | 30.3 | 57.6 | -8.01 | 29.8 | 1.08 | -8.85 | –
3 | C[C@H](CO)Nc1nc(SCc2cccc(Cl)c2F)nc2[nH]c(=O)sc12 | -1.75 | 5.16 | – | – | – | – | 19 | – | – | – | -7.6 | -4.99 | 1.74
4 | COc1ccccc1CN[C@H]1C2CCN(CC2)[C@H]1C(c1ccccc1)c1ccccc1 | 9.32 | 11.3 | 11.1 | 11.1 | 8.03 | 15.3 | 40.4 | 30.2 | 13.3 | 56.2 | -7.95 | 5 | –
5 | CCCCC#Cc1nc(NC)c2ncn([C@@H]3O[C@H](CO)[C@@H](O)[C@H]3O)c2n1 | -5.45 | 7.95 | -1.99 | – | -7.26 | -8.18 | 20.6 | 3.46 | 13.6 | 20 | -3.3 | 18.8 | –
6 | CC(C)NCC(O)c1ccc(N)c(C#N)c1 (configuration not stated) | 1.95 | 3.66 | – | -5.25 | – | -4.2 | 34.1 | – | -7.31 | -0.9 | -0.15 | 32.7 | –
7 | COc1ccc(Br)cc1S(=O)(=O)NC(=O)/C=C/c1ccccc1Cc1ccc2ccccc2c1 | 29.3 | 5.89 | 16.2 | – | 3.55 | 33.8 | 9.07 | 17.7 | 12.9 | 16.9 | 17.8 | 1.84 | –
8 | N=C(N)SCCc1c[nH]cn1 | -5.28 | 98.6 | 8.64 | 51.5 | 8.52 | 6.59 | 6.96 | 5.09 | -9.79 | – | -6.16 | 26.2 | –
9 | CCN(CC)CCCCC1CCN(CC(=O)N2c3ccccc3C(=O)Nc3cccnc32)CC1 | 2.83 | 43 | -4.13 | 12.9 | 14.9 | -8.29 | -7.08 | -2.79 | 88.7 | 72.4 | -8.07 | – | –
10 | COc1ccc(C2(O)OC(=O)C(c3ccc4c(c3)OCO4)=C2Cc2cc(OC)c(OC)c(OC)c2)cc1 (configuration not stated) | -2.26 | -8.58 | 11 | 4.57 | 2.7 | 7.04 | 11.8 | 37 | 6.22 | 28.8 | 3.1 | -4.29 | –
11 | CCc1cc(C(C)=O)c(O)cc1OCCCCCC(C)(C)c1nn[nH]n1 | 8.34 | 0.93 | 19.5 | 14 | 14.7 | 22.6 | 17.1 | -1.68 | 8.78 | 47.9 | 8.06 | – | –
12 | CCCn1c(=O)c2[nH]c(-c3cnn(Cc4cccc(C(F)(F)F)c4)c3)nc2n(CC)c1=O | 32.5 | 3.01 | – | 10.9 | 13.9 | 0.57 | -0.63 | 14.7 | 3.75 | -2.1 | -4.72 | -4 | –
13 | c1ccc(N2CCN(Cc3nc4ccccc4[nH]3)CC2)nc1 | 22.3 | 0.89 | – | – | 6.19 | 87.2 | 15.6 | 6.18 | -4.76 | -1.59 | 6.23 | 6.29 | –
14 | C[C@H](Cc1cc2c(c(C(N)=O)c1)N(CCCO)CC2)NCCOc1ccccc1OCC(F)(F)F | 55.5 | – | 86.5 | 84.6 | 92.3 | 63.3 | 62.9 | 2.96 | -2.64 | – | 90.7 | -4.65 | –
15 | Nc1nc2c(c(N3CCNCC3)n1)CCC1=C2[C@@H]2CCCC[C@@H]2O1 | 25.9 | 34.4 | – | 4.22 | – | 8.96 | 55 | -6.86 | 15.3 | -3.04 | -7.78 | 34.5 | –

Reference: ChEMBL document CHEMBL5442219
